The numbers were not newly measured in patent US5086043A, “Production of Saponins of Lichi” (priority 1990, dated 1992), which cites them from elsewhere.

Each structure is given as a SMILES string.

The test system of one data set is capillary permeability. Conditions: mice; established in the prior art.
Data set [1] has as its system carrageenin-induced swelling. The following applies: rats; established in the prior art.

For the compound `CC1(C)CC[C@]2(C(=O)O)CC[C@]3(C)C(=CC[C@@H]4[C@@]5(C)CC[C@H](O)C(C)(C)[C@@H]5CC[C@]43C)[C@@H]2C1` [oleanolic acid, Oleanolic acid], the capillary permeability entry with capillary permeability is given as “inhibited capillary permeability in mice”. In addition, in data set [1], the carrageenin-induced swelling result is “inhibited carrageenin-induced swelling in rats”.
